Data from patent publication US6716411B2, “Method for finding nucleotide synthesis inhibitors having fewer side effects” (Aventis Pharma Deustschland GmbH, priority 1999, dated 2004).

Tested on: pemphigus vulgaris
Assay: Observation of leflunomide treatment in humans
Format: in vivo
Conditions: one patient
Description: This diarrhea adversely affected the quality of life of the patient. Because of the problems caused by this side effect, an attempt was made, after more than two years' therapy with a constant dose of 20 mg of leflunomide per day, to end the therapy.
This observation was surprising, as the active metabolite of leflunomide, compound 1, has a half-life of approximately 14 days in humans. Furthermore, in this patient the blood levels of the active metabolite of leflunomide were repeatedly determined in the relatively high range between 70 mg/l and 85 mg/l.

**Q.** How did the “side effect of treatment” value (20 mg of leflunomide per day) turn out when `Cc1oncc1C(=O)Nc1ccc(C(F)(F)F)cc1` [leflunomide, N-(4-trifluoromethylphenyl)-5-methylisoxazole-4-carboxamide] was run?
**A.** The value was “permanent diarrhea”.

**Q.** What about the “symptoms of pemphigus vulgaris under therapy” value (20 mg of leflunomide per day) of the same compound?
**A.** Its value is “completely disappeared”.

**Q.** What about the “pemphigus vulgaris four days following discontinuation” value (after more than two years' therapy) of the same compound?
**A.** The value was “occurred again severely”.
